Source: PubChem BioAssay (NCI)
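The compound was tested at five concentrations on cells cultured in 96-well plates, with a 48-hour exposure period. GI50 is the concentration that inhibits growth by half. TGI: concentration producing complete growth inhibition.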

Columns and labels:
Assay in all cases: NCI tumour cell line growth inhibition, 48 h
LXFL 529 NSCLC = system: LXFL 529 NSCLC
DLD-1 colon = system: DLD-1 colon
HOP-18 NSCLC = system: HOP-18 NSCLC
SNB-78 CNS = system: SNB-78 CNS
RXF-631 renal = system: RXF-631 renal
XF 498 CNS = system: XF 498 CNS
M19-MEL melanoma = system: M19-MEL melanoma
DMS 114 small cell lung = system: DMS 114 small cell lung
MDA-N = system: MDA-N
SN12K1 renal = system: SN12K1 renal
P388/ADR leukemia = system: P388/ADR leukemia
P388 leukemia = system: P388 leukemia

Compound	TGI (LXFL 529 NSCLC) [µM]	TGI (DLD-1 colon) [µM]	TGI (HOP-18 NSCLC) [µM]	TGI (SNB-78 CNS) [µM]	TGI (RXF-631 renal) [µM]	TGI (XF 498 CNS) [µM]	TGI (M19-MEL melanoma) [µM]	TGI (DMS 114 small cell lung) [µM]	TGI (MDA-N) [µM]	TGI (SN12K1 renal) [µM]	TGI (P388/ADR leukemia) [µM]	TGI (P388 leukemia) [µM]	GI50 (LXFL 529 NSCLC) [µM]	GI50 (DLD-1 colon) [µM]	GI50 (SNB-78 CNS) [µM]
O=S(=O)(NCn1ccc2ccccc21)c1ccccc1	> 100	> 100	> 100	> 100	> 100	> 100	> 100	–	–	–	–	–	–	–	–
O=C(O)CCNCCCCNCCC(=O)O	> 100	> 100	> 100	–	–	> 100	–	–	–	–	–	–	–	–	–
C=CCO/N=C(\OC(=O)c1ccc([N+](=O)[O-])cc1)c1ccccc1	> 100	> 100	> 100	> 100	> 100	–	> 100	> 100	–	–	–	–	–	–	–
C=CCC1=C(C)C[C@@H]2CCC(=O)C=C12	> 100	–	–	> 100	> 100	–	> 100	> 100	–	–	–	–	–	–	–
CC1=Nc2ccccc2/C1=C\c1c(C)[nH]c2ccccc12	–	–	–	–	–	–	–	–	37.4	–	–	–	–	–	–
CC(C)=CCC(OC(=O)C=C(C)C)C1=CC(=O)c2c(O)ccc(O)c2C1=O (configuration not stated)	–	0.674	7.58	5.88	–	1.74	1.87	3.03	–	2.93	19.5	2.77	–	–	–
CC1CCSC(N(C(=O)N(C)c2ccccc2)c2ccccc2)=N1 (configuration not stated)	> 100	> 100	–	> 100	–	> 100	> 100	> 100	–	–	–	–	–	–	–
N.N.N.N.N.O=[N+]([O-])[O-].[Co+3].[O-][Cl+3]([O-])([O-])[O-]	> 100	> 100	–	> 100	–	–	–	–	–	–	–	–	> 100	> 100	> 100
CC(C)CCCC(C)[C@H]1CCC2[C@@H]3CCC4Nc5c(cnn5-c5ccccc5)C[C@]4(C)C3CC[C@@]21C (some centres not stated)	> 100	> 100	> 100	> 100	38.4	> 100	> 100	> 100	–	–	–	–	–	–	–
COc1ccc(CCn2c(=O)c3ccccc3n(C)c2=O)cc1	> 100	> 100	–	> 100	–	> 100	> 100	> 100	–	–	–	–	–	–	–
C=C1C(=O)OC2CC(C)C3CC(O)OC(OCC)C3(C)CC12 (configuration not stated)	–	–	–	–	–	–	–	–	35.7	–	–	–	–	–	–
CCOC(=O)N1CCc2cc(OC)c(OC)cc2/C1=C\c1ccc(OC)c(OC)c1	> 100	> 100	90.7	> 100	–	> 10	63.3	> 100	–	–	–	–	–	–	–
NNC(=O)C(=O)N/N=C1\CCC(=O)CC1C(=O)CCC(=O)Nc1ccc(Cl)cc1 (configuration not stated)	> 100	> 100	> 100	> 100	–	–	> 100	–	–	–	–	–	–	–	–
c1cncc(CNCc2cccnc2)c1	–	–	–	–	–	–	–	–	> 100	–	–	–	–	–	–
COC(=O)CC(NC(=O)OCc1ccccc1)C(C(=O)OCc1ccccc1)C(C)(OC)OC (configuration not stated)	57.2	> 100	–	–	–	37.3	> 100	91.7	–	–	–	–	–	–	–
COc1ccc(C(=O)C(CC2C(=O)NC(=O)NC2=O)c2ccc(OC)cc2)cc1 (configuration not stated)	> 100	> 100	> 100	> 100	–	> 100	> 100	> 100	–	–	–	–	–	–	–
CC(=O)O[C@]1(C)OC(=O)[C@@H](CC(C)C)N1[N+](=O)[O-]	> 100	> 100	> 100	> 100	–	–	> 100	> 100	–	–	–	–	–	–	–
Cc1cccc(C)c1NC(=O)CCc1nc(=S)[nH][nH]1	> 100	> 100	–	> 100	> 100	> 100	> 100	> 100	–	–	–	–	–	–	–
COC(=O)C1C(O)C(C)C(O)C(C)C=C(C)C2=C3C(=C(C)C(=O)c4c(O)c(c(C)c(OC(C)=O)c43)NC(=O)C(C)=C/C=C\C(C)C(O)C(C)C1O)OCO2 (configuration not stated)	–	–	–	–	–	–	–	–	31.8	–	–	–	–	–	–
CC(C)OP(=O)(OC(C)C)/C(N)=N/Nc1ccc([N+](=O)[O-])cc1	> 100	> 100	–	> 100	–	> 100	> 100	> 100	–	–	–	–	–	–	–
Cc1ccc(S(=O)(=O)c2ccccc2[N+](=O)[O-])cc1	> 100	> 100	–	> 100	> 100	> 100	> 100	> 100	–	–	–	–	–	–	–
